Experimental data taken from the supplement of paper PMC8149375.

What was measured:
Conditions in all cases: treatment: drug alone; 5 days
[1] = tested on: CAKI-1; assay: AUC of dose-response viability curve, drug alone (arbitrary (AUC of normalised viability)); higher = less growth inhibition
Description: (§1)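 Primary HTS: 8 RCC cell lines treated with 8 doses (up to 10 uM) of each library drug alone for 5 days; viability read by CellTiter-Glo and normalised to DMSO. GI50 was fitted with XLfit (4-parameter), AUC is the area under the dose-response curve, and minimum viability is the lowest fraction of DMSO viability across doses.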

[2] = tested on: TK-10; assay: as above
Description: as §1

[3] = tested on: ACHN; assay: as above
Description: as §1

[4] = tested on: SN12C; assay: as above
Description: as §1

[5] = tested on: A498; assay: as above
Description: as §1

[6] = tested on: UO-31; assay: as above
Description: as §1

[7] = tested on: 769-P; assay: as above
Description: as §1

[8] = tested on: 786-O; assay: as above
Description: as §1

[9] = tested on: CAKI-1; assay: minimum viability across doses, drug alone, relative to DMSO (fraction); higher = less growth inhibition
Description: as §1

[10] = tested on: TK-10; assay: as above
Description: as §1

[11] = tested on: ACHN; assay: as above
Description: as §1

[12] = tested on: SN12C; assay: as above
Description: as §1

[13] = tested on: A498; assay: as above
Description: as §1

[14] = tested on: UO-31; assay: as above
Description: as §1

[15] = tested on: 769-P; assay: as above
Description: as §1

[16] = tested on: 786-O; assay: as above
Description: as §1

[17] = tested on: CAKI-1; assay: GI50, drug alone; higher = less potent
Description: as §1

[18] = tested on: TK-10; assay: GI50, drug alone; higher = less potent
Description: as §1

[19] = tested on: ACHN; assay: GI50, drug alone; higher = less potent
Description: as §1

[20] = tested on: SN12C; assay: GI50, drug alone; higher = less potent
Description: as §1

[21] = tested on: A498; assay: GI50, drug alone; higher = less potent
Description: as §1

[22] = tested on: UO-31; assay: GI50, drug alone; higher = less potent
Description: as §1

[23] = tested on: 769-P; assay: GI50, drug alone; higher = less potent
Description: as §1

[24] = tested on: 786-O; assay: GI50, drug alone; higher = less potent
Description: as §1

GI50, drug alone [19] [nM]	GI50, drug alone [24] [nM]	Structure (SMILES)	AUC of dose-response viability curve [1]	AUC of dose-response viability curve [2]	AUC of dose-response viability curve [3]	AUC of dose-response viability curve [4]	AUC of dose-response viability curve [5]	AUC of dose-response viability curve [6]	AUC of dose-response viability curve [7]	AUC of dose-response viability curve [8]	minimum viability across doses [9]	minimum viability across doses [10]	minimum viability across doses [11]	minimum viability across doses [12]	minimum viability across doses [13]	minimum viability across doses [14]	minimum viability across doses [15]	minimum viability across doses [16]	GI50, drug alone [17] [nM]	GI50, drug alone [18] [nM]	GI50, drug alone [20] [nM]	GI50, drug alone [21] [nM]	GI50, drug alone [22] [nM]	GI50, drug alone [23] [nM]
81.1	7.53	COC1=CC(c2cc3ccccc3[nH]2)=N/C1=C\c1[nH]c(C)cc1C.CS(=O)(=O)O [Obatoclax mesylate (GX15-070)]	2.23	1.79	1.41	1.74	1.95	2.07	2.01	0.668	0.011	0.17	0.0118	0.00313	0.00496	0.00526	0.0323	0.0051	379	185	213	438	158	309
> 10000	> 10000	COc1ccc2c(c1OC)N=C(NC(=O)c1cccnc1)N1CCN=C21 [PIK-90]	2.42	2.75	3.1	2.7	3.98	3.42	3.07	2.46	0.358	0.616	0.655	0.175	1.02	0.822	0.693	0.53	3060	> 10000	3410	> 10000	> 10000	> 10000
2460	4860	CCCS(=O)(=O)Nc1ccc(F)c(C(=O)c2c[nH]c3ncc(Cl)cc23)c1F [PLX-4720]	3.33	3.13	2.57	3.44	4.12	4.19	3.18	2.5	0.278	0.574	0.197	0.875	0.885	0.944	0.817	0.335	7550	> 10000	> 10000	> 10000	> 10000	> 10000
348	1300	CC(C)n1nc(-c2cc3cc(O)ccc3[nH]2)c2c(N)ncnc21 [PP242]	2.12	2.12	2.07	2.23	2.93	3.42	2.56	2.02	0.0389	0.0788	0.05	0.0949	0.0519	0.00829	0.0576	0.00205	523	522	677	2910	4100	1550
455	429	Nc1ncnc2c1c(-c1cnc3[nH]ccc3c1)nn2C1CCCC1 [PP-121]	2.37	2.1	2.23	2.54	3.11	3.41	2.53	2.13	0.00982	0.0113	0.0162	0.0559	0.0928	0.0162	0.0337	0.00427	583	415	1040	2730	1530	1350
> 10000	> 10000	Br.Cc1ccc(C(=O)Cn2c3c(sc2=N)CCCC3)cc1 [Pifithrin-α]	3.26	2.84	3.14	3.09	4.11	3.69	3.5	1.95	0.871	0.636	0.743	0.76	0.946	0.864	0.918	0.385	> 10000	> 10000	> 10000	> 10000	> 10000	> 10000
> 10000	8.88	Nc1cccc2c1C(=O)N(C1CCC(=O)NC1=O)C2=O (stereo unspecified) [Pomalidomide]	3.49	3.12	3.14	3.38	3.01	3.85	3.35	2	0.924	0.818	0.85	0.884	0.732	1.01	0.887	0.424	> 10000	> 10000	> 10000	> 10000	> 10000	> 10000

The remaining lines, values behind:

Structure (SMILES)	GI50, drug alone [19] [nM]	GI50, drug alone [24] [nM]	AUC of dose-response viability curve [1]	AUC of dose-response viability curve [2]	AUC of dose-response viability curve [3]	AUC of dose-response viability curve [4]	AUC of dose-response viability curve [5]	AUC of dose-response viability curve [6]	AUC of dose-response viability curve [7]	AUC of dose-response viability curve [8]	minimum viability across doses [9]	minimum viability across doses [10]	minimum viability across doses [11]	minimum viability across doses [12]	minimum viability across doses [13]	minimum viability across doses [14]	minimum viability across doses [15]	minimum viability across doses [16]	GI50, drug alone [17] [nM]	GI50, drug alone [18] [nM]	GI50, drug alone [20] [nM]	GI50, drug alone [21] [nM]	GI50, drug alone [22] [nM]	GI50, drug alone [23] [nM]
C=CCc1cccc(/C=N/NC(=O)CN2CCN(Cc3ccccc3)CC2)c1O [PAC-1]	740	610	3.2	2.69	2.23	3.01	3.43	3.29	2.94	2.18	0.117	0.0835	0.0162	0.138	0.368	0.0166	0.0295	0.00713	3230	1620	3350	8780	1700	2320
CCCCCCCCCCCCc1ccc(S(=O)(=O)Nc2nncs2)cc1 [PHT-427]	> 10000	> 10000	3.62	2.94	3.08	3.22	4.29	4.78	3.26	2.32	0.959	0.797	0.824	0.858	1.05	1.14	0.855	0.512	> 10000	> 10000	> 10000	> 10000	> 10000	> 10000
Oc1cccc(-c2nc(N3CCOCC3)c3oc4ncccc4c3n2)c1 [PI-103]	286	355	2.37	2.15	2.08	1.91	2.26	1.8	2.53	2	0.0544	0.136	0.119	0.118	0.0881	0.0085	0.0599	0.00638	858	527	360	584	339	1360
Cc1ccc([N+](=O)[O-])cc1S(=O)(=O)N(C)/N=C/c1cnc2ccc(Br)cn12.Cl [PIK-75]	30.1	40.2	0.988	1.56	1.01	1.33	1.5	1.71	1.61	1.09	0.0354	0.121	0.00398	0.00713	0.0119	0.00672	0.0087	0.00345	25.8	70.5	70	82.1	84	117
CC(=O)Nc1nc(C)c(-c2ccc(Cl)c(S(=O)(=O)NCCO)c2)s1 [PIK-93]	7460	746	3.11	2.74	3.14	2.98	4.19	4.68	3.19	1.86	0.287	0.377	0.408	0.434	0.8	1.15	0.565	0.202	5070	8010	8030	> 10000	> 10000	> 10000
Cc1ccccc1-n1c(Cn2ncc3c(N)ncnc32)nc2cccc(C)c2c1=O [PIK-293]	> 10000	> 10000	3.46	3.07	3.53	3.16	3.9	4.72	3.49	2.42	0.902	0.734	0.928	0.837	0.982	1.2	0.949	0.581	> 10000	> 10000	> 10000	> 10000	> 10000	> 10000
CCn1nnc2c(N3CCOCC3)nc(-c3ccc(NC(=O)Nc4ccc(C(=O)N5CCN(C)CC5)cc4)cc3)nc21 [PKI-402]	224	117	1.91	1.71	1.89	1.66	2.25	1.99	2.51	1.66	0.0473	0.0487	0.0633	0.118	0.156	0.0165	0.102	0.00561	241	179	99.1	165	162	1140
COc1ccc(COc2cc3oc(=O)c4cc(C(C)O)ccc4c3cc2OC)cc1 (stereo unspecified) [Palomid 529]	> 10000	5750	3.57	2.69	3.5	3.3	4.44	5.25	3.39	2.56	0.668	0.633	0.893	0.844	1.12	1.2	0.854	0.251	> 10000	> 10000	> 10000	> 10000	> 10000	> 10000
Cc1ccc(Nc2nccc(N(C)c3ccc4c(C)n(C)nc4c3)n2)cc1S(N)(=O)=O.Cl [Pazopanib HCl]	5260	< 3	3.09	3.14	3.21	3.1	3.57	4.39	3.18	2.85	0.0579	0.661	0.224	0.193	0.514	0.63	0.207	0.427	6830	> 10000	5960	> 10000	> 10000	> 10000
CCOc1cc2ncc(C#N)c(Nc3ccc(F)c(Cl)c3)c2cc1NC(=O)/C=C/CN(C)C [Pelitinib (EKB-569)]	62.9	589	1.87	1.75	1.41	2.38	2.96	3.24	2.02	2.08	0.0302	0.01	0.00498	0.0102	0.0185	0.027	0.0352	0.00469	209	161	995	2190	1080	357
Cl.N=C(N)NC(=N)NCCc1ccccc1 [Phenformin hydrochloride]	> 10000	1500	3.22	2.95	3.53	2.87	3.42	3.11	3.29	2.31	0.821	0.333	0.682	0.0912	0.514	0.0295	0.841	0.116	> 10000	6890	5250	> 10000	3090	> 10000
Oc1cc(O)cc(/C=C/c2ccc(O)c(O)c2)c1 [Piceatannol]	> 10000	2370	3.58	3.2	3.28	3.18	4.25	5.06	2.35	2.54	0.33	0.685	0.67	0.712	1.05	0.908	0.849	0.383	7740	> 10000	> 10000	> 10000	> 10000	> 10000
